# Experimental data published in PubChem BioAssay AID1996.
# Settings: buffer; pH 7.4; 200.0 µM
row,solubility kinetic,Structure (SMILES)
1,44.1 µg/mL,Br.COc1cccc(CNCC2CCCO2)c1 (centres undefined)
2,0.5 µg/mL,Cc1ccc(NC(=S)NC(=O)C2CCCC2)cc1C
3,4.9 µg/mL,CCc1nc2ccccc2c(C(=O)OCC(=O)N(C)Cc2ccccc2)c1C
4,16.3 µg/mL,COC(=O)c1ccc(COC(=O)CNC(=O)C2CCCCC2)cc1
5,0.4 µg/mL,CCCc1nc2oc3c(NCC(C)O)ncnc3c2c2c1CCCC2 (centres undefined)
6,4.4 µg/mL,Cc1ccc2[nH]c3c(NCc4ccccc4)ncnc3c2c1
7,3.3 µg/mL,O=C(NC1CCCCC1)c1cc([N+](=O)[O-])ccc1N1CCCC1
8,39.7 µg/mL,CCCN1CCC(NC(=O)Cc2ccc(C)cc2)CC1
9,38.7 µg/mL,CN(Cc1nc(-c2cccs2)no1)CC1(N2CCOCC2)CCCCC1
10,2.6 µg/mL,CC(C)c1ccc(C(C)NC(=O)C2CCCC2)cc1 (centres undefined)
11,1.7 µg/mL,CCc1ccc(N2C(=O)C(Cl)=C(N3CCCCCC3)C2=O)cc1
12,0.9 µg/mL,Cc1cc(C(=O)Cn2cnc3cc(F)ccc3c2=O)c(C)n1C1CC1
13,> 60.5 µg/mL,CCCCn1c(N)c(N(C)C(=O)C2CC(=O)N(Cc3ccco3)C2)c(=O)[nH]c1=O (centres undefined)
14,> 38.9 µg/mL,CCOc1ccc(C(=O)NCCc2cnc[nH]2)cc1
15,> 49.9 µg/mL,CCOC(=O)C1CCCN(CCC(=O)Nc2cc(C)cc(C)c2)C1 (centres undefined)
16,> 48.7 µg/mL,O=C(O)CNC(=S)N(Cc1ccc(F)cc1)C1CCCCC1
17,> 49.3 µg/mL,CN(CC(=O)NC1CCCCCCC1)S(=O)(=O)c1cnc[nH]1
18,15.6 µg/mL,Nc1nc(NCCO)nc(NCc2ccccc2)c1[N+](=O)[O-]
19,39.9 µg/mL,CCCCN1C(=O)CC(Sc2ncccc2C(=O)O)C1=O (centres undefined)
20,> 44.4 µg/mL,O=C(COC(=O)C1CCCC1)NCc1ccc(Cl)cc1

# Further lines, the compound ahead of its results:
row,Structure (SMILES),solubility kinetic
1,CCN(CC(=O)N1CCCCC1)S(=O)(=O)c1ccccc1,42.4 µg/mL
2,CSc1sc(C(=O)N(C)C)c2c1S(=O)(=O)N(C)c1ccccc1-2,> 55.3 µg/mL
3,CCn1c(=O)n(CC)c2cc([N+](=O)[O-])c(N3CCNCC3)cc21,> 47.9 µg/mL
4,O=C(NC1CC2CCCC(C1)N2C(=O)Nc1ccccc1)C1CC1 (centres undefined),4.2 µg/mL
5,COC(=O)C1CCN(C(=O)COC(=O)c2cc(S(=O)(=O)N3CCOCC3)ccc2C)CC1,> 70.3 µg/mL
6,O=[N+]([O-])c1ccccc1/C=N/OCc1ccccc1,2.6 µg/mL
7,O=C(Nc1cc([N+](=O)[O-])ccc1N1CCCC1)c1cccs1,4.1 µg/mL
8,CN1C(=O)/C(=C/C=C2\SCCN2C)N(C)C1=S,8 µg/mL
9,NC(=S)C1COc2ccccc2O1 (centres undefined),> 29.3 µg/mL
10,COc1cc(NC(=S)NCCO)c(OC)cc1Cl,> 43.6 µg/mL
11,Cc1ccc(Cl)cc1NC(=O)Cn1c(C)csc1=O,16.4 µg/mL
12,O=C(O)c1ccccc1C(=O)NCCc1ccc(Cl)cc1,43.3 µg/mL
13,Cc1c(NC(=O)C(C)Oc2ccc(Br)cc2)c(=O)n(-c2ccccc2)n1C (centres undefined),> 64.5 µg/mL
14,O=C(Cc1ccc([N+](=O)[O-])cc1)Nc1nccs1,4.8 µg/mL
15,Fc1ccc(NC(=S)N2CCN(c3ccccn3)CC2)cc1Cl,< 0.2 µg/mL
16,CCOC(=O)c1cc2c(ccn2C)n1Cc1ccc(C#N)cc1,2.3 µg/mL
17,O=C(N/N=C/c1ccco1)c1ccc2nc[nH]c2c1,> 38.1 µg/mL
18,CCCNC(=O)Nc1cccc(NC(C)=O)c1,> 35.3 µg/mL
19,COCCN(C(=S)Nc1ccccc1C)C(C)c1ccco1 (centres undefined),45.7 µg/mL
20,Cc1ccnc(NC(=O)c2cc3ccccc3o2)c1,12.9 µg/mL

row,Structure (SMILES),solubility kinetic
1,Cc1ccc(/C(O)=C/C(=O)C(=O)NC23CC4CC(CC(C4)C2)C3)cc1,8.4 µg/mL
2,O=S(=O)(Nc1ccccc1N1CCCCC1)c1cccs1,1.2 µg/mL
3,Cc1ccc(S(=O)(=O)Nc2ccc(O)c3cccnc23)cc1,19 µg/mL
4,Cc1cc(C(=O)OCC(=O)Nc2ccccc2)c(C)o1,20 µg/mL
5,COc1cccc(NC(=O)COC(=O)C2C3CC4OC(=O)C2C4C3)c1 (centres undefined),49.5 µg/mL
6,Cc1[nH]c(SCC(=O)Nc2cc(C(N)=O)cc(C(N)=O)c2)nc1Cc1ccccc1,> 63.5 µg/mL
7,Cc1cc(C)cc(NC(=O)N(CCC#N)Cc2cccs2)c1,4.8 µg/mL
8,COC(=O)c1ccc(N2CCOCC2)c(NC(=O)c2ccco2)c1,2.8 µg/mL
9,COc1ccc(N2CCOCC2)c(NC(=O)c2cccnc2)c1,> 47 µg/mL
10,CC1CCCN(C(=O)COC(=O)c2cc(Br)ccc2O)C1 (centres undefined),40.1 µg/mL
11,Cc1cc(NC(=O)COC(=O)c2ccccc2Cl)no1,16.3 µg/mL
12,Cc1ccc(S(=O)(=O)N2CCC[C@H]2C(=O)Nc2ccc(F)cc2C)cc1,> 56.5 µg/mL
13,N#Cc1cccc(NC(=O)CCc2ccc(S(=O)(=O)N3CCOCC3)cc2)c1,48 µg/mL
14,COC(=O)C1C(O)=C(C=Nc2ccccc2)C(=O)CC1(C)C (centres undefined),> 45.2 µg/mL
15,O=C(Nc1ccccc1)Nc1sccc1-c1nc2ccccc2s1,3.8 µg/mL
16,COC(=O)c1sccc1NC(=O)COc1ccc(F)cc1Cl,< 0.7 µg/mL
17,CC(=O)c1c(O)c2cccc3c2n(c1=O)CCC3,> 36.5 µg/mL
18,COc1ccc(NC(=O)Nc2cccs2)cn1,> 37.4 µg/mL
19,CCOC(=O)N1CCN(C(=O)COC(=O)c2ccc(Cl)nc2)CC1,> 53.4 µg/mL
